Experimental data as given in US9738684B2, “N-terminally modified linear and branched polyamine conjugated peptidomimetics as antimicrobials agents” (COUNCIL OF SCIENTIFIC & INDUSTRIAL RESEARCH, priority 2015, dated 2017).
≈ marks a conversion by molar mass, not a printed value.

Columns and labels:
[1] = test system: human red blood cells (hRBC); assay: Hemolytic activity; format: cell-based; settings: 250 μg/mL, 1 h at 37° C.
Protocol: Hemolytic activity of the peptidomimetics was evaluated on human red blood cells (hRBC) as described previously with minor modifications [FEBS J, 273:4040-4054, 2006; Biochim Biophys Acta., 1798:1864-1875, 2010]. Briefly, 100 μL of fresh hRBC suspension 4% v/v in NaCl/Pi (35 mM phosphate buffer, 150 mM NaCl, pH 7.2) was placed in a 96-well plate. After incubation of the peptidomimetics (100 μL) in the hRBC suspension for 1 h at 37° C., the plates were centrifuged and supernatant (100 μL) was transferred to fresh 96-well plate. Absorbance was read at 540 nm using ELISA plate reader (Molecular Devices). Percent hemolysis was calculated using the following formula: % hemolysis=100[(A−A0)/(At−A0)]
Where, A represents absorbance of sample wells at 540 nm. Also A0 and At represents 0% and 100% hemolysis determined in NaCl/Pi and 1% Triton X-100, respectively (Table 2). […] Peptidomimetics 1e and 1f caused 31% and 30% hemolysis at 250 μg/mL. Peptidomimetics 2d, 2e and 2f caused significant hemolysis with 83%, 96% and 88% damage to hRBCs at […] respectively.

MRSA = assay: Membrane depolarization with DiSC3(5) dye; format: cell-based, Staphylococcus aureus; settings: up to the highest concentration tested
Protocol: For determination of membrane depolarizing ability of designed peptidomimetics, a membrane potential sensitive dye DiSC3(5) was used as described previously with minor modifications [Org Biomol. Chem. 10: 8326-8335, 2012; J. Am. Chem. Soc., 132: 18417-18428, 2010.]. Briefly, overnight grown MRSA was sub cultured into MHB for 2-3 h at 37° C. to obtain mid-log phase cultures. The cells were centrifuged at 4000 rpm for 10 min at 25° C., washed, and re-suspended into respiration buffer (5 mM HEPES, 20 mM glucose, pH 7.4) to obtain a diluted suspension of OD600˜0.05. Then DiSC3(5) [0.18 μM in DMSO], was added to 500 μL aliquotes of the re-suspended cells and allowed to stabilize for 1 h. Baseline fluorescence was acquired using a Edinburg F900 spectrofluorometer by excitation at 622 nm and emission at 670 nm in a 1 cm path length cuvette. Bandwidth of 5 nm was employed for excitation and emission. Subsequently, increasing concentrations of test peptidomimetics were added to the stabilized cells and the increase of fluorescence on account of the de-quenching of DiSC3(5) dye was measured after every 2 min to obtain the maximal depolarization. Increase in relative fluorescence unit (RFU) was plotted against increasing concentrations of different peptidomimetics or PMB. […] The increase in fluorescence for lipid tagged peptidomimetics was concentration dependent up to 9.9 μg/mL and henceforth, got saturated resulting into plateau like dose response curves. The experiment was repeated twice on two consecutive days and produced similar results.

[2] = test system: Enterococcus faecalis (ATCC 7080); assay: MIC, serial broth dilution; format: cell-based; settings: MHB, 18 h, 37° C.
[3] = test system: methicillin resistant Staphylococcus epidermidis (ATCC 51625); assay: MIC, serial broth dilution; format: cell-based; settings: MHB, 18 h, 37° C.
[4] = test system: Acinetobacter baumannii (ATCC 19606); assay: MIC, serial broth dilution; format: cell-based; settings: MHB, 18 h, 37° C.
S. aureus (ATCC 33591) = assay: Resistance development study, serial passage at sub MIC; format: cell-based, Staphylococcus aureus; settings: 17 serial passages at sub MIC
Protocol: FIG. 5: Illustration of resistance development study in S. aureus (ATCC 33591) after 17 serial passages with sub MIC of 1c/1d or antibiotic treatment. The fold change in MIC is the ratio of the MIC after 17 passages relative to that MIC observed before first passage.
To determine potential of active peptidomimetics against resistance development, in vitro serial passage method at sub inhibitory concentration was done. Briefly, bacterial suspension (100 μL) from duplicate wells at the concentration of sub-MIC was used to inoculate fresh culture. The culture was grown to obtain approximately 10^5 CFU/mL for the next experiment. These bacterial suspensions were then incubated with desired concentration of antibacterial agents for 18 h to determine new MIC. The same sub culturing protocol was used for next 16 passages and MIC was determined using OD630 nm as described previously in the text [Chem. Biol., 20:1286-1295, 2013.]

Row | Compound | % H, percentage hemolysis of human RBCs [1] [%] | change in relative fluorescence unit (RFU), membrane depolarization (MRSA) | MIC E. facaelis (ATCC 7080) [2] [µg/L] | MIC MRSE (ATCC 51625) [3] [µg/L] | MIC A. baumannii (ATCC 19606) [4] [µg/L] | increase in MIC after 17 passages (S. aureus (ATCC 33591)) [fold]
1 | NCCCNCCCCNCCCNC(=O)C(Cc1c[nH]c2ccccc12)NC(=O)C(Cc1c[nH]c2ccccc12)NC(=O)Cc1ccc(C(F)(F)F)cc1 (stereo not drawn) [1c] | 2 | only marginal changes in RFU | 28.4 (≈ 0.0373 µM) | 3.5 (≈ 0.0046 µM) | 28.4 (≈ 0.0373 µM) | 4
2 | CCCCCCCCCC(=O)NC(Cc1c[nH]c2ccccc12)C(=O)NC(Cc1c[nH]c2ccccc12)C(=O)NCCCNCCCCNCCCN (stereo not drawn) [1d] | 9 | intermediate changes in fluorescence intensity | 3.5 (≈ 0.0048 µM) | 1.7 (≈ 0.00233 µM) | 113.6 (≈ 0.156 µM) | 2
